From ChEMBL document CHEMBL1151886, “Synthesis and SAR of hydroxyethylamine based phenylcarboxyamides as inhibitors of BACE” (Bioorg Med Chem Lett, 2009)

Experiments:
Beta-secretase 1 [1] = molecular target: T1, Beta-secretase 1 (Homo sapiens, UniProt P56817); assay: Binding affinity to BACE assessed as displacement of [3H]BMS-599240; settings: read-out: IC50
Beta-secretase 1 [2] = molecular target: T1, Beta-secretase 1; assay: Inhibition of BACE1 in human HEK293 cells overexpressing APP with Swedish mutation assessed as inhibition of amyloid beta 40 production; format: cell-based; settings: read-out: IC50

T1 sequence (P56817 whole entry): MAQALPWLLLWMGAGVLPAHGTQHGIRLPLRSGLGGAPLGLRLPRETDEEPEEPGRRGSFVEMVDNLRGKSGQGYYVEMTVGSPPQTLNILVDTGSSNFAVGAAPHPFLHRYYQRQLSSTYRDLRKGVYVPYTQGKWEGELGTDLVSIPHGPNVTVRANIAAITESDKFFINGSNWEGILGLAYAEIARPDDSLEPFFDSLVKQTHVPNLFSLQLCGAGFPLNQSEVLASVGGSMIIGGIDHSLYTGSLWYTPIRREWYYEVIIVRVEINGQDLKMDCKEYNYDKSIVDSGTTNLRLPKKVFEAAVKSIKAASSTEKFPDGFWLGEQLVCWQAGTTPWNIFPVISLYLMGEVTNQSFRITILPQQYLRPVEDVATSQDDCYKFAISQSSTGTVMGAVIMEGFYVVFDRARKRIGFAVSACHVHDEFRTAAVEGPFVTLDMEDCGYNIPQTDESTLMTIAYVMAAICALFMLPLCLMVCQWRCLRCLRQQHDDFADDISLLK

Q: What does the source list for `CO/N=C(/C)c1cc(C(=O)NC(C)c2ccc(F)cc2)cc(C(=O)N[C@@H](Cc2cc(F)cc(F)c2)[C@H](O)CNCc2cccc(OC)c2)c1` (some centres not stated)?
A: IC50 (Beta-secretase 1 [1]): 0.024 µM; IC50 (Beta-secretase 1 [2]): 0.276 µM

Q: What does the source list for `COc1cccc(CNC[C@@H](O)[C@H](Cc2cc(F)cc(F)c2)NC(=O)c2cccc(N(c3ccccc3)S(C)(=O)=O)c2)c1`?
A: IC50 (Beta-secretase 1 [1]): 0.011 µM; IC50 (Beta-secretase 1 [2]): 0.137 µM

Q: What does the source list for `CCCN(CCC)C(=O)c1cc(Oc2ccc(OC)cc2)cc(C(=O)N[C@@H](Cc2cc(F)cc(F)c2)[C@H](O)CNCc2cccc(OC)c2)c1`?
A: IC50 (Beta-secretase 1 [1]): 0.01 µM; IC50 (Beta-secretase 1 [2]): 0.412 µM

Q: How did the IC50 (Beta-secretase 1 [1]) turn out when `CO/N=C(\C)c1cc(C(=O)N[C@@H](Cc2cc(F)cc(F)c2)[C@H](O)CNCc2cccc(OC)c2)cc(N(c2ccccc2)S(C)(=O)=O)c1` was run?
A: Its IC50 is 0.01 µM.

Q: And the IC50 (Beta-secretase 1 [2])?
A: Its IC50 is 0.086 µM.

Q: Which IC50 (Beta-secretase 1 [1]) does the source give for `CCCN(CCC)C(=O)c1cc(Oc2ccccc2)cc(C(=O)N[C@@H](Cc2cc(F)cc(F)c2)[C@H](O)CNCc2cccc(OC)c2)c1` here?
A: Its IC50 is 0.01 µM.

Q: What about the IC50 (Beta-secretase 1 [2]) of the same molecule?
A: Its IC50 is greater than 0.333 µM.

Q: Which results are given for `COc1cccc(CNC[C@@H](O)[C@H](Cc2cc(F)cc(F)c2)NC(=O)c2cc(/C(C)=N\O)cc(N(C)S(C)(=O)=O)c2)c1`?
A: IC50 (Beta-secretase 1 [1]): 0.076 µM; IC50 (Beta-secretase 1 [2]): 0.429 µM

Q: How did the IC50 (Beta-secretase 1 [1]) turn out when `CO/N=C(/C)c1cc(C(=O)N[C@@H](Cc2cc(F)cc(F)c2)[C@H](O)CNCc2cccc(OC)c2)cc(N2CCCCS2(=O)=O)c1` was run?
A: Its IC50 is 0.052 µM.

Q: What about the IC50 (Beta-secretase 1 [2]) of the same molecule?
A: The IC50 was 0.345 µM.

Q: With `COc1cccc(CNC[C@@H](O)[C@H](Cc2cc(F)cc(F)c2)NC(=O)c2cc(C(C)=O)cc(N(c3ccccc3)S(C)(=O)=O)c2)c1` as the molecule, how does the IC50 (Beta-secretase 1 [1]) read?
A: Its IC50 is 0.017 µM.

Q: And the IC50 (Beta-secretase 1 [2])?
A: The IC50 was greater than 0.263 µM.

Q: What does the source list for `COc1cccc(CNC[C@@H](O)[C@H](Cc2cc(F)cc(F)c2)NC(=O)c2cc(/C(C)=N\OCc3ccccc3)cc(N3CCCCS3(=O)=O)c2)c1`?
A: IC50 (Beta-secretase 1 [1]): 0.031 µM; IC50 (Beta-secretase 1 [2]): 0.821 µM

Q: `CCCO/N=C(/C)c1cc(C(=O)N[C@@H](Cc2cc(F)cc(F)c2)[C@H](O)CNCc2cccc(OC)c2)cc(N(c2ccccc2)S(C)(=O)=O)c1` was tested. Which IC50 (Beta-secretase 1 [1]) did it give?
A: Its IC50 is 0.006 µM.

Q: What about the IC50 (Beta-secretase 1 [2]) of the same molecule?
A: Its IC50 is 0.184 µM.

Q: What does the source list for `COc1cccc(CNC[C@@H](O)[C@H](Cc2cc(F)cc(F)c2)NC(=O)c2cc(C(C)O)cc(N3CCCCS3(=O)=O)c2)c1` (some centres not stated)?
A: IC50 (Beta-secretase 1 [1]): 0.043 µM; IC50 (Beta-secretase 1 [2]): 0.305 µM

Q: `COc1cccc(CNC[C@@H](O)[C@H](Cc2cc(F)cc(F)c2)NC(=O)c2cc(/C(C)=N\OCc3ccccc3)cc(N(C)S(C)(=O)=O)c2)c1` was tested. Which IC50 (Beta-secretase 1 [1]) did it give?
A: Its IC50 is 0.009 µM.

Q: What about the IC50 (Beta-secretase 1 [2]) of the same molecule?
A: The IC50 was greater than 0.333 µM.

Q: What does the source list for `COc1cccc(CNC[C@@H](O)[C@H](Cc2cc(F)cc(F)c2)NC(=O)c2cccc(N3CCCCS3(=O)=O)c2)c1`?
A: IC50 (Beta-secretase 1 [1]): 0.074 µM; IC50 (Beta-secretase 1 [2]): 0.182 µM

Q: What does the source list for `COc1cccc(CNC[C@@H](O)[C@H](Cc2cc(F)cc(F)c2)NC(=O)c2cc(C(C)=O)cc(N(C)S(C)(=O)=O)c2)c1`?
A: IC50 (Beta-secretase 1 [1]): 0.124 µM; IC50 (Beta-secretase 1 [2]): 0.559 µM

Q: Which IC50 (Beta-secretase 1 [1]) does the source give for `C=CCO/N=C(/C)c1cc(C(=O)N[C@@H](Cc2cc(F)cc(F)c2)[C@H](O)CNCc2cccc(OC)c2)cc(N(C)S(C)(=O)=O)c1` here?
A: The IC50 was 0.151 µM.

Q: And the IC50 (Beta-secretase 1 [2])?
A: The IC50 was 0.363 µM.

Q: `C=CCO/N=C(/C)c1cc(C(=O)N[C@@H](Cc2cc(F)cc(F)c2)[C@H](O)CNCc2cccc(OC)c2)cc(N2CCCCS2(=O)=O)c1` was tested. Which IC50 (Beta-secretase 1 [1]) did it give?
A: Its IC50 is 0.111 µM.

Q: And the IC50 (Beta-secretase 1 [2])?
A: Its IC50 is 1.23 µM.

Q: Which IC50 (Beta-secretase 1 [1]) does the source give for `COc1cccc(CNC[C@@H](O)[C@H](Cc2cc(F)cc(F)c2)NC(=O)c2cc(/C(C)=N\O)cc(N(c3ccccc3)S(C)(=O)=O)c2)c1` here?
A: The IC50 was 0.009 µM.

Q: What about the IC50 (Beta-secretase 1 [2]) of the same molecule?
A: The IC50 was 0.091 µM.

Q: What does the source list for `CCCN(CCC)C(=O)c1cc(Sc2ccc(OC)cc2)cc(C(=O)N[C@@H](Cc2cc(F)cc(F)c2)[C@H](O)CNCc2cccc(OC)c2)c1`?
A: IC50 (Beta-secretase 1 [1]): 0.027 µM; IC50 (Beta-secretase 1 [2]): 0.03 µM

Q: With `CO/N=C(\C)c1cc(C(=O)N[C@@H](Cc2cc(F)cc(F)c2)[C@H](O)CNCc2cccc(OC)c2)cc(N(C)S(C)(=O)=O)c1` as the molecule, how does the IC50 (Beta-secretase 1 [1]) read?
A: The IC50 was 0.06 µM.

Q: And the IC50 (Beta-secretase 1 [2])?
A: Its IC50 is 0.052 µM.

Q: For `CCCN(CCC)C(=O)c1cc(C(=O)N[C@@H](Cc2cc(F)cc(F)c2)[C@H](O)CNCc2cccc(OC)c2)cc(S(=O)(=O)c2ccccc2)c1`, which IC50 (Beta-secretase 1 [1]) is on record?
A: The IC50 was 0.011 µM.

Q: What about the IC50 (Beta-secretase 1 [2]) of the same molecule?
A: The IC50 was 0.148 µM.

Q: For `C=CCO/N=C(/C)c1cc(C(=O)NC(C)c2ccc(F)cc2)cc(C(=O)N[C@@H](Cc2cc(F)cc(F)c2)[C@H](O)CNCc2cccc(OC)c2)c1` (some centres not stated), which IC50 (Beta-secretase 1 [1]) is on record?
A: Its IC50 is 0.168 µM.

Q: And the IC50 (Beta-secretase 1 [2])?
A: The IC50 was 0.53 µM.

Q: With `COc1cccc(CNC[C@@H](O)[C@H](Cc2cc(F)cc(F)c2)NC(=O)c2cc(C(C)=O)cc(N3CCCCS3(=O)=O)c2)c1` as the molecule, how does the IC50 (Beta-secretase 1 [1]) read?
A: The IC50 was 0.09 µM.

Q: What about the IC50 (Beta-secretase 1 [2]) of the same molecule?
A: The IC50 was 0.248 µM.

Q: With `COc1cccc(CNC[C@@H](O)[C@H](Cc2cc(F)cc(F)c2)NC(=O)c2cc(/C(C)=N\OCC(C)C)cc(N3CCCCS3(=O)=O)c2)c1` as the molecule, how does the IC50 (Beta-secretase 1 [1]) read?
A: Its IC50 is 0.428 µM.

Q: And the IC50 (Beta-secretase 1 [2])?
A: Its IC50 is 2.1 µM.

Q: What does the source list for `COc1cccc(CNC[C@@H](O)[C@H](Cc2cc(F)cc(F)c2)NC(=O)c2cc(/C(C)=N\OCc3ccccc3)cc(N(c3ccccc3)S(C)(=O)=O)c2)c1`?
A: IC50 (Beta-secretase 1 [1]): 0.012 µM; IC50 (Beta-secretase 1 [2]): 0.088 µM

Q: For `COc1cccc(CNC[C@@H](O)[C@H](Cc2cc(F)cc(F)c2)NC(=O)c2cc(C(=O)NC(C)c3ccc(F)cc3)cc(C(C)O)c2)c1` (some centres not stated), which IC50 (Beta-secretase 1 [1]) is on record?
A: Its IC50 is 0.037 µM.

Q: What about the IC50 (Beta-secretase 1 [2]) of the same molecule?
A: The IC50 was 0.164 µM.

Q: For `CCCN(CCC)C(=O)c1cc(Sc2ccccc2)cc(C(=O)N[C@@H](Cc2cc(F)cc(F)c2)[C@H](O)CNCc2cccc(OC)c2)c1`, which IC50 (Beta-secretase 1 [1]) is on record?
A: Its IC50 is 0.013 µM.

Q: And the IC50 (Beta-secretase 1 [2])?
A: The IC50 was greater than 0.333 µM.

Q: Which results are given for `CCCN(CCC)C(=O)c1cc(Oc2ccccc2OC)cc(C(=O)N[C@@H](Cc2cc(F)cc(F)c2)[C@H](O)CNCc2cccc(OC)c2)c1`?
A: IC50 (Beta-secretase 1 [1]): 0.054 µM; IC50 (Beta-secretase 1 [2]): > 0.666 µM

Q: What does the source list for `C=CCO/N=C(/C)c1cc(C(=O)N[C@@H](Cc2cc(F)cc(F)c2)[C@H](O)CNCc2cccc(OC)c2)cc(N(c2ccccc2)S(C)(=O)=O)c1`?
A: IC50 (Beta-secretase 1 [1]): 0.027 µM; IC50 (Beta-secretase 1 [2]): 0.162 µM

Q: What does the source list for `COc1cccc(CNC[C@@H](O)[C@H](Cc2cc(F)cc(F)c2)NC(=O)c2cc(/C(C)=N\O)cc(N3CCCCS3(=O)=O)c2)c1`?
A: IC50 (Beta-secretase 1 [1]): 0.038 µM; IC50 (Beta-secretase 1 [2]): 0.117 µM

Q: How did the IC50 (Beta-secretase 1 [1]) turn out when `CCCN(CCC)C(=O)c1cc(Oc2ccc(F)cc2)cc(C(=O)N[C@@H](Cc2cc(F)cc(F)c2)[C@H](O)CNCc2cccc(OC)c2)c1` was run?
A: Its IC50 is 0.022 µM.

Q: What about the IC50 (Beta-secretase 1 [2]) of the same molecule?
A: Its IC50 is 0.094 µM.

Q: Which IC50 (Beta-secretase 1 [1]) does the source give for `CCCN(CCC)C(=O)c1cc(C(=O)N[C@@H](Cc2cc(F)cc(F)c2)[C@H](O)CNCc2cccc(OC)c2)cc(S(=O)(=O)c2ccc(OC)cc2)c1` here?
A: Its IC50 is 0.012 µM.

Q: And the IC50 (Beta-secretase 1 [2])?
A: The IC50 was 0.392 µM.

Q: With `CCCO/N=C(/C)c1cc(C(=O)N[C@@H](Cc2cc(F)cc(F)c2)[C@H](O)CNCc2cccc(OC)c2)cc(N(C)S(C)(=O)=O)c1` as the molecule, how does the IC50 (Beta-secretase 1 [1]) read?
A: The IC50 was 0.059 µM.

Q: What about the IC50 (Beta-secretase 1 [2]) of the same molecule?
A: The IC50 was 0.217 µM.

Q: For `CCCO/N=C(/C)c1cc(C(=O)N[C@@H](Cc2cc(F)cc(F)c2)[C@H](O)CNCc2cccc(OC)c2)cc(N2CCCCS2(=O)=O)c1`, which IC50 (Beta-secretase 1 [1]) is on record?
A: Its IC50 is 0.025 µM.

Q: And the IC50 (Beta-secretase 1 [2])?
A: The IC50 was 0.205 µM.

Q: Which IC50 (Beta-secretase 1 [1]) does the source give for `COc1cccc(CNC[C@@H](O)[C@H](Cc2cc(F)cc(F)c2)NC(=O)c2cc(C(C)O)cc(N(C)S(C)(=O)=O)c2)c1` (some centres not stated) here?
A: Its IC50 is 0.043 µM.

Q: What about the IC50 (Beta-secretase 1 [2]) of the same molecule?
A: Its IC50 is 0.122 µM.

Q: With `COc1cccc(CNC[C@@H](O)[C@H](Cc2cc(F)cc(F)c2)NC(=O)c2cccc(N(C)S(C)(=O)=O)c2)c1` as the molecule, how does the IC50 (Beta-secretase 1 [1]) read?
A: Its IC50 is 0.075 µM.

Q: And the IC50 (Beta-secretase 1 [2])?
A: The IC50 was 0.08 µM.

Q: Which results are given for `COc1cccc(CNC[C@@H](O)[C@H](Cc2cc(F)cc(F)c2)NC(=O)c2cc(/C(C)=N\OCC(C)C)cc(N(C)S(C)(=O)=O)c2)c1`?
A: IC50 (Beta-secretase 1 [1]): 0.173 µM; IC50 (Beta-secretase 1 [2]): > 0.666 µM
